US20240309014A1, “MACROCYCLIC COMPOUNDS AND USES THEREOF” (President and Fellows of Harvard College, priority 2017, published 2024)

Columns and labels:
[1] = test system: KPL-4 subcutaneous xenograft; assay: KPL-4 subcutaneous xenograft model in combination with trastuzumab; format: in vivo, nude mice
Experimental: A human HER-2 positive breast cancer cell line KPL-4, which had been cultured in an RPMI-1640 medium containing 10% FBS, and penicillin and streptomycin, was adjusted to a concentration of 1×10^8 cells/mL with Hank's Balanced Salt Solution to prepare a cell suspension. The cell suspension was inoculated in a volume of 100 μL into a subcutaneous part of a right flank of nude mice, 7 weeks of ages (CAnN.Cg-Foxnlnu/CrlCrlj, female, Charles River Laboratories Japan, Inc.). Sixteen days after the cell inoculation, the shortest diameter and the longest diameter of a tumor in each mouse were measured by using an electronic digital caliper (Digimatic™ caliper, Mitutoyo Corporation), so as to calculate the volume of the tumor in accordance with the following calculation formulae: […]
On the basis of the volumes of tumors obtained on the first day of administration, the mice were grouped such that averages of the tumor volumes were substantially equal among the groups. The experiment was conducted on groups each consisting of 6 mice. Each test compound was dissolved in DMSO and a solution was stored at the freezer before use. Immediately before the administration, the stock solution was diluted in saline.

[2] = test system: Tenascin-C and EDA-fibronectin; assay: Effects on Tenascin-C and EDA-fibronectin in the FaDu subcutaneous model (FIG. 15); format: in vivo, nude mice; settings: Compound (1) 180 μg/kg + cetuximab 10 mg/kg on Day 1, tumors five days after, vs control tumors
Experimental: A human squamous cell carcinoma of the head and neck (SCCHN) cell line FaDu, which had been cultured in an RPMI-1640 medium containing 10% FBS, and penicillin-streptomycin (culture medium), was adjusted to a concentration of 5×10^7 cells/mL with culture medium to prepare a cell suspension. The cell suspension was inoculated in a volume of 100 μL into a subcutaneous part of a right flank of nude mice, 6 weeks of ages (CAnN.Cg-Foxnlnu/CrlCrlj, female, Charles River Laboratories Japan, Inc.). Ten days after cell inoculation, the mice were grouped such that averages of the tumor volumes were substantially equal among the groups. The experiment was conducted on groups each consisting of 5 mice. Compound (1) was dissolved in DMSO and a solution was stored in the freezer before use. […] Five days after the single administration, tumor samples were collected and fixed with IHC Zinc Fixative (BD Pharmingen) at 4° C. for 24 hr. Paraffin-embedded tissues were sectioned (3 μm), mounted on positively charged slides, and air-dried. Sections were deparaffinized, conditioned and the antigens were retrieved using microwave with 1 mM EDTA at pH 6.0 for Tenascin-C. For EDA-fibronectin, the antigens retrieval procedure was not necessary. […]

[3] = test system: tubulin protein purified from porcine brain; assay: Cell-free tubulin polymerization assay; format: biochemical; settings: final concentrations 0.625-10 μmol/L
Experimental: Tubulin Polymerization Assay kit was purchased from Cytoskeleton, Inc. (Cat.#BKO11P). The kit contained 1 bottle of lyophilized tubulin protein purified from porcine brain, 3 tubes of lyophilized GTP, 2 bottles of lyophilized assay buffer, and 1 bottle of tubulin glycerol buffer. Assay buffer was prepared by dissolving the contents in 10 mL of deionized and sterilized water. This solution contained 80 mmol/L piperazine-N,N′-bis[2-ethanesulfonic acid] sesquisodium salt, 2.0 mmol/L magnesium chloride, 0.5 mmol/L ethylene glycol-bis(2-amino-ethyl ether) N,N,N′,N-tetra-acetic acid, pH 6.9, and 10 μmol/L fluorescent reporter.
The buffer was stored at −70° C. until use. […]
In the tubulin polymerization assay, reaction mixture was prepared by mixing 820 µL of assay buffer, 17.6 μL of GTP stock solution, and 600 μL of tubulin glycerol buffer. […] Fluorescence emission at 460 nm (excitation wavelength at 360 nm) was measured every 2 minutes for 90 minutes using the SpectraMax® M5e microplate reader (Molecular Devices). Tubulin polymerization was followed by fluorescence enhancement due to the incorporation of a fluorescence reporter into microtubules as polymerization occurred. […]

L-1210 Leukemia = settings: cited from earlier work

Row | Compound | Tumor Regression (%) ([1]; 0.09 mg/kg i.v. + trastuzumab 10 mg/kg) | Tumor Regression (%) ([1]; 0.09 mg/kg i.v., without trastuzumab) | Tumor Regression (%) ([1]; 0.18 mg/kg i.v. + trastuzumab 10 mg/kg) | Tumor Regression (%) ([1]; 0.18 mg/kg i.v., without trastuzumab) | expression levels of Tenascin-C and ED-A fibronectin [2] | effect on tubulin polymerization [3] | activity against L-1210 Leukemia in vivo (L-1210 Leukemia)
1 | C=C1C[C@@H]2CC[C@@]34C[C@H]5O[C@H]6[C@@H](O3)[C@H]3O[C@H](CC[C@@H]3O[C@H]6C5O4)CC(=O)O[C@@H]3[C@@H](C)[C@@H]4O[C@@H]5C[C@]6(C[C@@H]7O[C@]8(C[C@H](C)[C@@H]9O[C@H](CN)[C@H](O)C[C@@H]9O8)C[C@H](C)[C@@H]7O6)O[C@@H]5C[C@@H]4O[C@H]3C[C@H]3O[C@@H](CC[C@@H]1O2)C[C@@H](C)C3=C (stereo in doubt) [Compound (1)] | 83% | 43% | 100% | 87% | reduced | inhibited tubulin polymerization in a concentration-dependent manner | 
2 | C=C1C[C@@H]2CC[C@@]34C[C@H]5O[C@H]6[C@@H](O3)[C@H]3O[C@H](CC[C@@H]3O[C@H]6[C@H]5O4)CC(=O)O[C@@H]3[C@@H](C)[C@@H]4O[C@@H]5C[C@]6(C[C@@H]7O[C@]8(C[C@H](C)[C@@H]9O[C@H]([C@@H](O)C[C@@H](O)CO)C[C@@H]9O8)C[C@H](C)[C@@H]7O6)O[C@@H]5C[C@@H]4O[C@H]3C[C@H]3O[C@@H](CC[C@@H]1O2)C[C@@H](C)C3=C [Halichondrin B, reference compound] |  |  |  |  |  |  | highly active
